# Test results: paper PMC6090075 (Acta Pharmaceutica Sinica. B, 2017)
# Target: low-density lipoprotein receptor (LDLR)-related protein 6 (LRP6) (Homo sapiens, UniProt O75581)
# Test: SPR on immobilized recombinant LRP6
# Format: binding
# low-density lipoprotein receptor (LDLR)-related protein 6 (LRP6), sequence (O75581 20-1613): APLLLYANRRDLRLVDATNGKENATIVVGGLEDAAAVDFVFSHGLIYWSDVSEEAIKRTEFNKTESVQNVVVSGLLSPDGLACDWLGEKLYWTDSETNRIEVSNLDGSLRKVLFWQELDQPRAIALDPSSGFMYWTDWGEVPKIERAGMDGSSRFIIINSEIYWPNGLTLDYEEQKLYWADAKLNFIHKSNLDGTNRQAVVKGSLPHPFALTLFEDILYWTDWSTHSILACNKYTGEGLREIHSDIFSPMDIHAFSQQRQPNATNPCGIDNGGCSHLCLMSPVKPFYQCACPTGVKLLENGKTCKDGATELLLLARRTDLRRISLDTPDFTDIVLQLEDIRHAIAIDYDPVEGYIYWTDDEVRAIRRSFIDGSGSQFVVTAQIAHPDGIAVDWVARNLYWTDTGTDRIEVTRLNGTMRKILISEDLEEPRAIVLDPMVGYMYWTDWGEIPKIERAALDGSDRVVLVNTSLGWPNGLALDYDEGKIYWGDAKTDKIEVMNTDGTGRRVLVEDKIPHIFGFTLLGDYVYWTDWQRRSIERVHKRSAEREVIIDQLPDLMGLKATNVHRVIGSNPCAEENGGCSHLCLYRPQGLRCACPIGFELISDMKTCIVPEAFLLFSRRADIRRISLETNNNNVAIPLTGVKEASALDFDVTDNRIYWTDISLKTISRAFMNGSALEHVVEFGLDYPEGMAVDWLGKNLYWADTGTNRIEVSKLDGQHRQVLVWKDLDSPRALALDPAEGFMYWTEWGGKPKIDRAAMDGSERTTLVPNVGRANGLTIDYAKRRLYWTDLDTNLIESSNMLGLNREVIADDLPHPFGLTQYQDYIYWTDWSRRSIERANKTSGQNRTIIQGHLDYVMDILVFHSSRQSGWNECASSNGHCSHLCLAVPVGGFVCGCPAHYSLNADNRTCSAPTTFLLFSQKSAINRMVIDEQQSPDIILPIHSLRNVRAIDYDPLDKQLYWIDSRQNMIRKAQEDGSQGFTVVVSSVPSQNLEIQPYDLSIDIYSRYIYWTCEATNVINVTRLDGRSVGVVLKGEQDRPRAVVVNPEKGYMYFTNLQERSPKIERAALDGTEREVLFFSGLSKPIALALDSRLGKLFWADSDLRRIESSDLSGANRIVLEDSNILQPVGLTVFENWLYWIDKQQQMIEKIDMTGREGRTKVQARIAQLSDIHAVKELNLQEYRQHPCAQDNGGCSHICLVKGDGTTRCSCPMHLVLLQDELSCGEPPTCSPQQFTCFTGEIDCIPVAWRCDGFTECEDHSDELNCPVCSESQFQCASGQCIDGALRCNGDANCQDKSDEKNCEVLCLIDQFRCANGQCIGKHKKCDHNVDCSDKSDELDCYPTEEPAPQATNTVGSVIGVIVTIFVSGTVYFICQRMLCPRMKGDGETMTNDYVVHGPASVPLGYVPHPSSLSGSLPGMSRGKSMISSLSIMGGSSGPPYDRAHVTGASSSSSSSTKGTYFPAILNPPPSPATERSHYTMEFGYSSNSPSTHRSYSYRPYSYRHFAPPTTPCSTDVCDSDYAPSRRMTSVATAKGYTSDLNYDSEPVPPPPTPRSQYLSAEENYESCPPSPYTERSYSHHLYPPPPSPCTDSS
smiles,measurement,value
"C=CCSSC[C@H](N)C(=O)O [SAMC, S-allylmercaptocysteine]",Kd,5.65 µM
